Laboratory results taken from ChEMBL document CHEMBL6078698, “Discovery of 6-Fluoro-5-{4-[(5-fluoro-2-methyl-3-oxo-3,4-dihydroquinoxalin-6-yl)methyl]piperazin-1-yl}-N-methylpyridine-2-carboxamide (AZD9574): A CNS-Penetrant, PARP1-Selective Inhibitor” (J Med Chem, 2024).
In brackets after ≈: the same amount, converted by molar mass.

Experiments:
[1] = Inhibition of cell proliferation of human DLD-1 cells expressing BRCA2-/- incubated for 7 days by Sytox green dye based analysis; type: functional; conditions: DLD-1, 168 h
[2] = Ratio of unbound drug concentration in brain to plasma of rat; type: ADME, cell-free; conditions: for Kp uu: brain and plasma (unbound), read-out: K(p,uu,brain)
MDR1 (P-gp), BCRP = assay: Efflux ratio in MDCK-MDR1-BCRP cells; type: ADME, cell-based, Canis lupus familiaris; conditions: dog
hERG (KCNH2) = hERG (KCNH2) (Homo sapiens, UniProt Q12809); assay: (§1) Inhibition of hERG transfected in CHO cells by electrophysiology; type: toxicity, cell-based; conditions: human, CHO cells transfected with hERG
Sequence of hERG (KCNH2) (Q12809 whole entry): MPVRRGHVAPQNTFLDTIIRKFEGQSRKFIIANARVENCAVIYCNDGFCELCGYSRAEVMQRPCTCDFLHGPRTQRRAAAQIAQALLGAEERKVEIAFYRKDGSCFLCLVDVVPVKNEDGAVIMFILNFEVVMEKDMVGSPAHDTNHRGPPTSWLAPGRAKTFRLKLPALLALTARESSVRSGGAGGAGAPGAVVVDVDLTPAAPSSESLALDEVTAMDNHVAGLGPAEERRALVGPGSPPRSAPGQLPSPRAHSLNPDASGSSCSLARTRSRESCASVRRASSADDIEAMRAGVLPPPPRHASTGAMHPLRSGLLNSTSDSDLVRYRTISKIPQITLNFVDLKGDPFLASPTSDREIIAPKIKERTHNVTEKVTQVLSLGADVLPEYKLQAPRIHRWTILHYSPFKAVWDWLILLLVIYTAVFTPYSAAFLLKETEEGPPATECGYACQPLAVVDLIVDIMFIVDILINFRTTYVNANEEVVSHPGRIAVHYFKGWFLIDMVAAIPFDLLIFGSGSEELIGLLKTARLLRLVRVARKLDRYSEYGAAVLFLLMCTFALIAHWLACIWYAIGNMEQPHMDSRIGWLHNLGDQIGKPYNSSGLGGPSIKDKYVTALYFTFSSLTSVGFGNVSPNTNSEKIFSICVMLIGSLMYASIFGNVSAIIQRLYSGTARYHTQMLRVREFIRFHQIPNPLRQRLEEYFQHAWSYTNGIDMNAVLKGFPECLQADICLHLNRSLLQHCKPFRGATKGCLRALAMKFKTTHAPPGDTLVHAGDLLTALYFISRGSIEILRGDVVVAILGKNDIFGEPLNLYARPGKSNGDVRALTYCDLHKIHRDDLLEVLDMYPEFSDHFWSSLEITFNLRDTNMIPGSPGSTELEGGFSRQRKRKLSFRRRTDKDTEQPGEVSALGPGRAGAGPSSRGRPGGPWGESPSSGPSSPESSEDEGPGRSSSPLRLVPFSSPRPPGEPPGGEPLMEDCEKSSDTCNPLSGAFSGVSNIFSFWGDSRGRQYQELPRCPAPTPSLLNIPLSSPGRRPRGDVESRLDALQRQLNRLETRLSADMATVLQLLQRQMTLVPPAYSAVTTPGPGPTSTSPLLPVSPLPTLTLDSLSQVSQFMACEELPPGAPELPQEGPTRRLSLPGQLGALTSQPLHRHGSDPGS

[3] = Solubility of compound at pH 7.4; type: physicochemical; conditions: buffer
[4] = Lipophilicity, log D of compound at pH 7.4; type: physicochemical; conditions: buffer
[5] = Intrinsic clearance in human liver microsomes; type: ADME, Microsome; conditions: read-out: CLH
[6] = molecular target: Poly [ADP-ribose] polymerase 2 (Homo sapiens, UniProt Q9UGN5); assay: Inhibition of N-terminal 6His-tagged full-length recombinant human PARP2 by fluorescence anisotropy assay
Sequence of Poly [ADP-ribose] polymerase 2 (Q9UGN5 whole entry): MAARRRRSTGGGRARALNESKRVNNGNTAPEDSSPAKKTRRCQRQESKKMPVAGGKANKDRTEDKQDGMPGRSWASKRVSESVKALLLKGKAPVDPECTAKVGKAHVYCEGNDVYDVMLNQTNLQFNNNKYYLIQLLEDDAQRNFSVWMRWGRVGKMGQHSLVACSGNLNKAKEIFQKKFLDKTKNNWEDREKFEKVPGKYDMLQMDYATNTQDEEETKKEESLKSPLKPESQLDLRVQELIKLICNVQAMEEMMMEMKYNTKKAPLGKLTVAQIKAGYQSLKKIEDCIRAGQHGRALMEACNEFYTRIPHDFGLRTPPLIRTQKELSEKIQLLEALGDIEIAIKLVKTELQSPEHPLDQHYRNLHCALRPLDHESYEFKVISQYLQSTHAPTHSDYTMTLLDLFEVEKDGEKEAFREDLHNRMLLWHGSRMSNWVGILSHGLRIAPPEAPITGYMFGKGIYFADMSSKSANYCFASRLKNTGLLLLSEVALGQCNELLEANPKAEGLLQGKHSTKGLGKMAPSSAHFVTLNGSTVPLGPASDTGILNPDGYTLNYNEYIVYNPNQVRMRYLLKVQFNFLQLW

[7] = molecular target: Poly [ADP-ribose] polymerase 1 (Homo sapiens, UniProt P09874); assay: Inhibition of N-terminal 6His-tagged full-length recombinant human PARP1 by fluorescence anisotropy assay
Sequence of Poly [ADP-ribose] polymerase 1 (P09874 whole entry): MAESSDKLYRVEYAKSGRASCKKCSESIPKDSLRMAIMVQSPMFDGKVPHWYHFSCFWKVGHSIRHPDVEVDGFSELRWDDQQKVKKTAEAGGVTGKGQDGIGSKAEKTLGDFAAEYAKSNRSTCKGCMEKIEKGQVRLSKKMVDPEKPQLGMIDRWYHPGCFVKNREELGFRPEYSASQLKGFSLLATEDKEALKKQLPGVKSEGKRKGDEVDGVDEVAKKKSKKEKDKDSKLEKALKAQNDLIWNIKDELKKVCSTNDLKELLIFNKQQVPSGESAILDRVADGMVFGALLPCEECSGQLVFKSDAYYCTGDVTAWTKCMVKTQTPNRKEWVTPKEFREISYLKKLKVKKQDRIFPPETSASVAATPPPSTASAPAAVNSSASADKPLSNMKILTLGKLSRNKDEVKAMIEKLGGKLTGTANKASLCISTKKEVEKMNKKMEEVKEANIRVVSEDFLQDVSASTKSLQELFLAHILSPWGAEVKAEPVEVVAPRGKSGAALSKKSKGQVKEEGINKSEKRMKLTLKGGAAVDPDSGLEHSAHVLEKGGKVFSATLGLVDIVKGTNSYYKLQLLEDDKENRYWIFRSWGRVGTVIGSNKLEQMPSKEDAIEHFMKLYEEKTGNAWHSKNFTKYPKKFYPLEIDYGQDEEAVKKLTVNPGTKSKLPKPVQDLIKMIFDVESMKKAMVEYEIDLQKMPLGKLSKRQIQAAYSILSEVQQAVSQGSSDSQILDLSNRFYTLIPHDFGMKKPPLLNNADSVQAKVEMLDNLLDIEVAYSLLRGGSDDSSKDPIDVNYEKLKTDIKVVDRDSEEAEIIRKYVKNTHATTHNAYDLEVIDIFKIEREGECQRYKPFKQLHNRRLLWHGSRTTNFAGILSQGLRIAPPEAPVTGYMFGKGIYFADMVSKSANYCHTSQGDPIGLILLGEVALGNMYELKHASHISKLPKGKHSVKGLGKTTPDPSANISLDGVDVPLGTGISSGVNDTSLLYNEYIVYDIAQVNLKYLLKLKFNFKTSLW

[8] = molecular target: Voltage-gated inwardly rectifying potassium channel KCNH2 (Homo sapiens, UniProt Q12809); assay: as §1; type: toxicity, cell-based
Sequence of Voltage-gated inwardly rectifying potassium channel KCNH2 (Q12809 whole entry): as the sequence (Q12809 whole entry) above

[9] = Unbound fraction in Cynomolgous monkey plasma at 1 mg/kg, po or 0.5 mg/kg, iv; type: ADME, organism-based, Macaca fascicularis; conditions: cynomolgus monkey, in vivo
DLD-1 [10] = assay: Antitumor activity against human DLD-1 cells expressing BRCA2-/- xenografted in mouse at 10 mg/kg administered once daily for 5 weeks relative to control; type: functional; conditions: DLD-1, 840 h, read-out: TGI
[11] = Half life in CD-1 mouse at 1 mg/kg, po or 0.5 mg/kg, iv; type: ADME, organism-based; conditions: in vivo
[12] = Unbound fraction in CD-1 mouse plasma at 1 mg/kg, po or 0.5 mg/kg, iv; type: ADME, organism-based; conditions: in vivo
[13] = Oral bioavailability in Han Wistar rat at 1 mg/kg; type: ADME, organism-based; conditions: in vivo
[14] = Oral bioavailability in Beagle dog at 1 mg/kg; type: ADME, organism-based, Canis lupus familiaris; conditions: in vivo
[15] = Oral bioavailability […] in CD-1 mouse at 1 mg/kg; type: ADME, organism-based; conditions: in vivo
[16] = Oral bioavailability in Cynomolgous monkey at 1 mg/kg; type: ADME, organism-based, Macaca fascicularis; conditions: cynomolgus monkey, in vivo
[17] = Volume of distribution at steady state in Beagle dog at 1 mg/kg, po or 1 mg/kg, iv; type: ADME, organism-based, Canis lupus familiaris; conditions: in vivo
[18] = Volume of distribution at steady state in CD-1 mouse at 1 mg/kg, po or 0.5 mg/kg, iv; type: ADME, organism-based; conditions: in vivo
[19] = Half life in Cynomolgous monkey at 1 mg/kg, po or 0.5 mg/kg, iv; type: ADME, organism-based, Macaca fascicularis; conditions: cynomolgus monkey, in vivo
DLD-1 [20] = assay: Antitumor activity against human DLD-1 cells expressing BRCA2-/- xenografted in mouse at 30 mg/kg administered once daily for 5 weeks relative to control; type: functional; conditions: DLD-1, 840 h, read-out: TGI
[21] = Toxicity in mouse xenografted with human DLD-1 cells expressing BRCA2-/- assessed as body weight reduction at 3 to 30 mg/kg administered once daily for 5 weeks; type: organism-based; conditions: in vivo, 840 h, dose 3-30 mg/kg
[22] = Unbound fraction in Beagle dog plasma at 1 mg/kg, po or 1 mg/kg, iv; type: ADME, organism-based, Canis lupus familiaris; conditions: in vivo
[23] = Half life in Beagle dog at 1 mg/kg, po or 1 mg/kg, iv; type: ADME, organism-based, Canis lupus familiaris; conditions: in vivo
[24] = Volume of distribution at steady state in Cynomolgous monkey at 1 mg/kg, po or 0.5 mg/kg, iv; type: ADME, organism-based, Macaca fascicularis; conditions: cynomolgus monkey, in vivo
DLD-1 [25] = assay: Antitumor activity against human DLD-1 cells expressing BRCA2-/- xenografted in mouse at 3 mg/kg administered once daily for 5 weeks relative to control; type: functional; conditions: DLD-1, 840 h, read-out: TGI
[26] = Half life in Han Wistar rat at 1 mg/kg, po or 1 mg/kg, iv; type: ADME, organism-based; conditions: in vivo
[27] = Unbound fraction in Han Wistar rat plasma at 1 mg/kg, po or 1 mg/kg, iv; type: ADME, organism-based; conditions: in vivo
[28] = Toxicity in mouse xenografted with human DLD-1 cells expressing BRCA2-/- assessed as drug tolerance at 3 to 30 mg/kg administered once daily for 5 weeks; type: organism-based; conditions: in vivo, 840 h, dose 3-30 mg/kg
[29] = Volume of distribution at steady state in Han Wistar rat at 1 mg/kg, po or 1 mg/kg, iv; type: ADME, organism-based; conditions: in vivo
DLD-1 [30] = assay: Antitumor activity against human DLD-1 cells expressing BRCA2-/- xenografted in athymic nude Foxn1nu mouse at 100 mg/kg administered once daily for 28 days relative to control; type: functional; conditions: DLD-1, 672 h, time 28 day, read-out: TGI

CCc1cc2cnc(CN3CCN(c4ccc(C(=O)NC)nc4)CC3)cc2[nH]c1=O
IC50 [1]: 3 nM

CCc1nc2ccc(CN3CCN(c4ccc(C(=O)NC)nc4)CC3)cc2[nH]c1=O
Kp uu [2]: 0.05

CCc1cc2ccc(CN3CCN(c4ccc(C(=O)NC)nc4)CC3)cc2[nH]c1=O
Kp uu [2]: 0.1
efflux ratio (MDR1 (P-gp), BCRP): 2.8
IC50 [1]: 4 nM
IC50 (hERG (KCNH2)): 21000 nM

CCc1nc2ccc(CN3CCN(c4ccc(C(=O)NC)nc4Cl)CC3)cc2[nH]c1=O
solubility [3]: 8 µM (≈ 3.53 µg/mL)
efflux ratio (MDR1 (P-gp), BCRP): 6.7
IC50 [1]: 1 nM
logD [4]: 3
microsomal CLint [5]: 10 µL/min/mg

CCc1nc2ccc(CN3CCN(c4ccc(C(=O)NC)nc4F)CC3)cc2[nH]c1=O
solubility [3]: 4 µM (≈ 1.7 µg/mL)
Kp uu [2]: 0.1
efflux ratio (MDR1 (P-gp), BCRP): 2
IC50 [1]: 1 nM
logD [4]: 2.7
microsomal CLint [5]: 8 µL/min/mg

CCc1nc2ccc(CN3CCN(c4ccc(C(=O)NC)nc4C)CC3)cc2[nH]c1=O
solubility [3]: 13 µM (≈ 5.47 µg/mL)
efflux ratio (MDR1 (P-gp), BCRP): 2.2
IC50 [1]: 2 nM
logD [4]: 2.9
microsomal CLint [5]: 10 µL/min/mg

CCc1cc2ccc(CN3CCN(c4ccc(C(=O)NC)nc4C)CC3)cc2[nH]c1=O
solubility [3]: 3 µM (≈ 1.26 µg/mL)
IC50 [6]: 1500 nM
IC50 [1]: 2 nM
IC50 [7]: 5 nM
logD [4]: 3.3
microsomal CLint [5]: 19 µL/min/mg
IC50 [8]: 17000 nM

CCc1nc2ccc(CN3CCN(c4ccc(F)nc4C)CC3)cc2[nH]c1=O
solubility [3]: 30 µM (≈ 11.4 µg/mL)
IC50 [6]: 53000 nM
Kp uu [2]: 0.36
efflux ratio (MDR1 (P-gp), BCRP): 1.3
IC50 [1]: 10 nM
IC50 [7]: 5 nM
logD [4]: 3.3
microsomal CLint [5]: 13 µL/min/mg
IC50 [8]: 11000 nM

CCc1nc2ccc(CN3CCN(c4ccc(C(=O)NC)nc4F)CC3)c(F)c2[nH]c1=O
solubility [3]: < 11 µM
K(p,uu,brain) ([2]; brain): 0.43
IC50 [1]: 5 nM
logD [4]: 2.6
microsomal CLint [5]: < 5 µL/min/mg
IC50 (hERG (KCNH2)): > 40000 nM

CCc1nc2ccc(CN3CCN(c4cnc(F)cc4C)CC3)cc2[nH]c1=O
solubility [3]: 9 µM (≈ 3.43 µg/mL)
IC50 [6]: > 67000 nM
Kp uu [2]: 0.2
efflux ratio (MDR1 (P-gp), BCRP): 1
IC50 [1]: 13 nM
IC50 [7]: 11 nM
logD [4]: 3.3
microsomal CLint [5]: 19 µL/min/mg
IC50 [8]: 23000 nM

CCc1nc2ccc(CN3CCN(c4ccc(C(=O)NC)nc4F)CC3)c(C)c2[nH]c1=O
solubility [3]: < 2 µM
IC50 [6]: > 100000 nM
IC50 [1]: 12 nM
logD [4]: 3.1
microsomal CLint [5]: < 3 µL/min/mg

CCc1nc2ccc(CN3CCN(c4ccc(C(=O)NC)nc4F)CC3)c(Cl)c2[nH]c1=O
solubility [3]: 20 µM (≈ 9.18 µg/mL)
efflux ratio (MDR1 (P-gp), BCRP): 0.4
IC50 [1]: 17 nM
logD [4]: 3.1
microsomal CLint [5]: 10 µL/min/mg
IC50 (hERG (KCNH2)): > 40000 nM

CNC(=O)c1ccc(N2CCN(Cc3ccc4nc(C)c(=O)[nH]c4c3F)CC2)c(C)n1
solubility [3]: 11 µM (≈ 4.67 µg/mL)
Kp uu [2]: 0.19
efflux ratio (MDR1 (P-gp), BCRP): 1.6
IC50 [1]: 7 nM
logD [4]: 2.2
microsomal CLint [5]: < 3 µL/min/mg
IC50 (hERG (KCNH2)): > 40000 nM

CCc1nc2ccc(CN3CCN(c4ccc(F)nc4)CC3)cc2[nH]c1=O
solubility [3]: 9 µM (≈ 3.31 µg/mL)
IC50 [6]: 46000 nM
efflux ratio (MDR1 (P-gp), BCRP): 0.5
IC50 [1]: 66 nM
IC50 [7]: 9 nM
logD [4]: 2.6
microsomal CLint [5]: < 3 µL/min/mg
IC50 [8]: > 40000 nM

CNC(=O)c1ccc(N2CCN(Cc3ccc4nc(C)c(=O)[nH]c4c3)CC2)c(F)n1
solubility [3]: 26 µM (≈ 10.7 µg/mL)
IC50 [6]: 26000 nM
efflux ratio (MDR1 (P-gp), BCRP): 3.6
IC50 [7]: 8 nM
logD [4]: 2.1
microsomal CLint [5]: < 3 µL/min/mg

CCc1cc2ccc(CN3CCN(c4cnc(C(=O)NC)cc4C)CC3)cc2[nH]c1=O
solubility [3]: 3 µM (≈ 1.26 µg/mL)
IC50 [6]: 6300 nM
IC50 [1]: 1140 nM
IC50 [7]: 6 nM
logD [4]: 3.3
microsomal CLint [5]: 33 µL/min/mg
IC50 [8]: 8000 nM

CNC(=O)c1ccc(N2CCN(Cc3ccc4c5c(c(=O)[nH]c4c3)COCC5)CC2)cn1
solubility [3]: 1 µM (≈ 0.434 µg/mL)
IC50 [6]: 690 nM
efflux ratio (MDR1 (P-gp), BCRP): 6.8
IC50 [7]: 4 nM
logD [4]: 2
microsomal CLint [5]: 17 µL/min/mg
IC50 [8]: > 40000 nM

CNC(=O)c1ccc(N2CCN(Cc3ccc4nc(C)c(=O)[nH]c4c3F)CC2)c(F)n1 [AZD-9574]
Fu [9]: 16%
solubility [3]: 19 µM (≈ 8.14 µg/mL)
inhibition in vivo at 10 mg/kg (DLD-1 [10]): 73%
half-life [11]: 4 h
Fu [12]: 20%
bioavailability [13]: 50%
bioavailability [14]: 91%
bioavailability [15]: 116%
bioavailability [16]: 95%
Vdss [17]: 1.1 L/kg
Vdss [18]: 2.7 L/kg
half-life [19]: 10.5 h
inhibition in vivo at 30 mg/kg (DLD-1 [20]): 69%
Activity [21]: Toxic
Fu [22]: 25%
half-life [23]: 12 h
Kp uu [2]: 0.31
IC50 [1]: 16 nM
Vdss [24]: 1.7 L/kg
inhibition in vivo at 3 mg/kg (DLD-1 [25]): 43%
logD [4]: 1.9
half-life [26]: 6.3 h
microsomal CLint [5]: < 3 µL/min/mg
Fu [27]: 13%
IC50 (hERG (KCNH2)): > 40000 nM
Activity [28]: Non-toxic
Vdss [29]: 2.3 L/kg

NC(=O)c1cccc2cn(-c3ccc([C@@H]4CCCNC4)cc3)nc12 [NIRAPARIB]
Kp uu [2]: < 0.1
IC50 [1]: 167 nM

O=C(c1cc(Cc2n[nH]c(=O)c3ccccc23)ccc1F)N1CCN(C(=O)C2CC2)CC1 [OLAPARIB]
inhibition in vivo at 100 mg/kg (DLD-1 [30]): 40%
Kp uu [2]: < 0.1

C[C@]12CCCN1CC1=NNC(=O)c3cc(F)cc4[nH]c2c1c34 [PAMIPARIB]
IC50 [6]: 6 nM
Kp uu [2]: 0.1
IC50 [1]: 7 nM

CNCc1ccc(-c2[nH]c3cc(F)cc4c3c2CCNC4=O)cc1 [RUCAPARIB]
Kp uu [2]: < 0.1
IC50 [1]: 39 nM

CCc1cc2ncc(CN3CCN(c4ccc(C(=O)NC)nc4)CC3)cc2[nH]c1=O [SARUPARIB]
Kp uu [2]: < 0.1
microsomal CLint [5]: < 6 µL/min/mg
IC50 (hERG (KCNH2)): > 40000 nM

Cn1ncnc1[C@H]1c2n[nH]c(=O)c3cc(F)cc(c23)N[C@@H]1c1ccc(F)cc1 [TALAZOPARIB]
Kp uu [2]: < 0.1

C[C@]1(c2nc3c(C(N)=O)cccc3[nH]2)CCCN1 [VELIPARIB]
Kp uu [2]: 0.19
IC50 [1]: 1300 nM
